In the assay the test system is BDF1 mice, P388 leukemia ip, median survival T/C. The assay is described as follows: NCI In Vivo Anticancer Drug Screen. Data for tumor model P388 Leukemia (intraperitoneal) in B6D2F1 (BDF1) mice. The conditions noted are these: endpoint: median survival time, higher = longer survival. In outline: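 Each value expresses how treatment altered survival: treated-mouse outcome over vehicle-mouse outcome, both groups bearing the transplanted tumour.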

The mark [1] stands for this setting: dose: 100.0 mg/kg/injection, schedule: Q04DX003 (ip), vehicle: saline with Tween-80.
Where [2] appears, read: dose: 200.0 mg/kg/injection, schedule: Q04DX003 (ip), vehicle: saline with Tween-80.

Several values for one entry are separate records, joined by “and”; a condition that tells them apart may be missing. Equal entries are not always repeated. Inconclusive results and toxic doses are left out.

In the case of `O=NN(CCCl)C(=O)Nc1ccc(CCCl)cc1`, the T/C was 90 % of control (dose: 37.5 mg/kg/injection, schedule: Q01DX009 (ip), vehicle: other); 120 % of control (dose: 37.5 mg/kg/injection, schedule: Q04DX003 (ip), vehicle: other); 90 % of control (dose: 66.0 mg/kg/injection, schedule: Q04DX003 (ip), vehicle: other); 100 % of control (dose: 75.0 mg/kg/injection, schedule: Q01DX009 (ip), vehicle: other); 120 % of control (dose: 75.0 mg/kg/injection, schedule: Q04DX003 (ip), vehicle: other); 95 % of control (dose: 99.0 mg/kg/injection, schedule: Q04DX003 (ip), vehicle: other). Moreover, the T/C reads like this: (dose: 150.0 mg/kg/injection, schedule: Q01DX009 (ip), vehicle: other) 105 % of control; (dose: 150.0 mg/kg/injection, schedule: Q04DX003 (ip), vehicle: other) 255 % of control and 95 % of control; (dose: 225.0 mg/kg/injection, schedule: Q04DX003 (ip), vehicle: other) 100 % of control.

Regarding `O=[N+]([O-])c1ccc(Sc2ccccc2)c2nonc12`, the T/C is, setting by setting: (dose: 12.5 mg/kg/injection, schedule: Q01DX009 (ip), vehicle: saline with Tween-80) 88 % of control; (dose: 25.0 mg/kg/injection, schedule: Q01DX009 (ip), vehicle: saline with Tween-80) 107 % of control; (dose: 50.0 mg/kg/injection, schedule: Q01DX009 (ip), vehicle: saline with Tween-80) 116 % of control.

Take `CC1=CC2C(O)(CC(CO)=CC3C4C(C)(C)C4(OC(=O)c4ccccc4)C(OC(=O)c4ccccc4)C(C)C32O)C1=O` (stereo not drawn): the T/C (dose: 0.03 mg/kg/injection, schedule: Q01DX009 (ip), vehicle: Klucel (hydroxypropylcellulose) (HPC)) was 95 % of control; the T/C (dose: 0.03 mg/kg/injection, schedule: Q01DX009 (ip), vehicle: saline + alcohol) is 93 % of control; the T/C (dose: 0.06 mg/kg/injection, schedule: Q01DX009 (ip), vehicle: Klucel (hydroxypropylcellulose) (HPC)) was 99 % of control; the T/C (dose: 0.06 mg/kg/injection, schedule: Q01DX009 (ip), vehicle: saline + alcohol) is 94 % of control; the T/C (dose: 0.12 mg/kg/injection, schedule: Q01DX009 (ip), vehicle: Klucel (hydroxypropylcellulose) (HPC)) is 99 % of control; the T/C (dose: 0.12 mg/kg/injection, schedule: Q01DX009 (ip), vehicle: saline + alcohol) is 112 % of control. The T/C is, setting by setting: (dose: 0.25 mg/kg/injection, schedule: Q01DX009 (ip), vehicle: Klucel (hydroxypropylcellulose) (HPC)) 94 % of control; (dose: 0.25 mg/kg/injection, schedule: Q01DX009 (ip), vehicle: saline + alcohol) 119 % of control; (dose: 0.5 mg/kg/injection, schedule: Q01DX009 (ip), vehicle: Klucel (hydroxypropylcellulose) (HPC)) 89 % of control; (dose: 0.5 mg/kg/injection, schedule: Q01DX009 (ip), vehicle: saline + alcohol) 119 % of control; (dose: 1.0 mg/kg/injection, schedule: Q01DX009 (ip), vehicle: Klucel (hydroxypropylcellulose) (HPC)) 110 % of control; (dose: 1.0 mg/kg/injection, schedule: Q01DX009 (ip), vehicle: saline + alcohol) 92 % of control. The T/C is 116 % of control (dose: 3.1 micrograms/kg/injection, schedule: Q01DX009 (ip), vehicle: gum acacia); 172 % of control (dose: 3.1 micrograms/kg/injection, schedule: Q01DX009 (ip), vehicle: saline + alcohol); 88 % of control and 118 % of control (dose: 3.1 micrograms/kg/injection, schedule: Q01DX009 (ip), vehicle: saline with Tween-80); 110 % of control (dose: 6.2 micrograms/kg/injection, schedule: Q01DX009 (ip), vehicle: gum acacia); 118 % of control (dose: 6.2 micrograms/kg/injection, schedule: Q01DX009 (ip), vehicle: saline + alcohol); 119 % of control (dose: 6.2 micrograms/kg/injection, schedule: Q01DX009 (ip), vehicle: saline with Tween-80). Also, the T/C (dose: 12.5 micrograms/kg/injection, schedule: Q01DX009 (ip), vehicle: gum acacia) was 107 % of control; the T/C (dose: 12.5 micrograms/kg/injection, schedule: Q01DX009 (ip), vehicle: saline + alcohol) was 110 % of control; the T/C (dose: 12.5 micrograms/kg/injection, schedule: Q01DX009 (ip), vehicle: saline with Tween-80) was 98 % of control and 121 % of control; the T/C (dose: 25.0 micrograms/kg/injection, schedule: Q01DX009 (ip), vehicle: gum acacia) was 108 % of control; the T/C (dose: 25.0 micrograms/kg/injection, schedule: Q01DX009 (ip), vehicle: saline + alcohol) was 110 % of control; the T/C (dose: 25.0 micrograms/kg/injection, schedule: Q01DX009 (ip), vehicle: saline with Tween-80) was 93 % of control. Further, the T/C was 110 % of control (dose: 50.0 micrograms/kg/injection, schedule: Q01DX009 (ip), vehicle: gum acacia); 116 % of control (dose: 50.0 micrograms/kg/injection, schedule: Q01DX009 (ip), vehicle: saline + alcohol); 105 % of control (dose: 100.0 micrograms/kg/injection, schedule: Q01DX009 (ip), vehicle: gum acacia); 110 % of control (dose: 100.0 micrograms/kg/injection, schedule: Q01DX009 (ip), vehicle: saline + alcohol); 104 % of control (dose: 100.0 micrograms/kg/injection, schedule: Q01DX009 (ip), vehicle: saline with Tween-80); 110 % of control (dose: 200.0 micrograms/kg/injection, schedule: Q01DX009 (ip), vehicle: gum acacia). The T/C by setting is: (dose: 200.0 micrograms/kg/injection, schedule: Q01DX009 (ip), vehicle: saline + alcohol) 150 % of control; (dose: 200.0 micrograms/kg/injection, schedule: Q01DX009 (ip), vehicle: saline with Tween-80) 107 % of control and 116 % of control; (dose: 400.0 micrograms/kg/injection, schedule: Q01DX009 (ip), vehicle: saline + alcohol) 116 % of control; (dose: 800.0 micrograms/kg/injection, schedule: Q01DX009 (ip), vehicle: gum acacia) 96 % of control; (dose: 800.0 micrograms/kg/injection, schedule: Q01DX009 (ip), vehicle: saline + alcohol) 96 % of control; (dose: 800.0 micrograms/kg/injection, schedule: Q01DX009 (ip), vehicle: saline with Tween-80) 98 % of control and 110 % of control.

Turning to `Cc1c(Cl)cccc1NC(=O)Nc1cccc2ccccc12`, the T/C under setting [1] is 91 % of control; the T/C under setting [2] was 100 % of control; the T/C (dose: 400.0 mg/kg/injection, schedule: Q04DX003 (ip), vehicle: saline with Tween-80) was 108 % of control.

Take `Cc1c(C)c(O)c2c(c1O)C(=O)C=C(Cl)C2=O`: the T/C was 121 % of control (dose: 6.25 mg/kg/injection, schedule: Q04DX003 (ip), vehicle: saline with Tween-80); 119 % of control and 120 % of control (dose: 12.5 mg/kg/injection, schedule: Q04DX003 (ip), vehicle: saline with Tween-80); 110 % of control and 120 % of control (dose: 25.0 mg/kg/injection, schedule: Q04DX003 (ip), vehicle: saline with Tween-80).

With `NNC(=O)C1CCC(=O)O1` (stereo not drawn), the T/C reads like this: (dose: 75.0 mg/kg/injection, schedule: Q01DX009 (ip), vehicle: saline with Tween-80) 98 % of control; (dose: 150.0 mg/kg/injection, schedule: Q01DX009 (ip), vehicle: saline with Tween-80) 91 % of control; (dose: 300.0 mg/kg/injection, schedule: Q01DX009 (ip), vehicle: saline with Tween-80) 100 % of control.

As for `Cc1cc2c(cc1C)C(O)C(N1CCN(C)CC1)CCC2` (stereo not drawn), the T/C was 109 % of control (dose: 50.0 mg/kg/injection, schedule: Q04DX003 (ip), vehicle: saline with Tween-80); 100 % of control under setting [1]; 100 % of control under setting [2].

For `CC1=CC(O)(C2(O)C=C(C)CC(C)(C)C2)CC(C)(C)C1` (stereo not drawn), the T/C was 94 % of control (dose: 100.0 mg/kg/injection, schedule: Q01DX009 (ip), vehicle: other); 108 % of control (dose: 200.0 mg/kg/injection, schedule: Q01DX009 (ip), vehicle: other); 103 % of control (dose: 400.0 mg/kg/injection, schedule: Q01DX009 (ip), vehicle: other).

For the compound `O=C(Nc1ccc(C(=O)Nc2cc(S(=O)(=O)O)cc3cccc(S(=O)(=O)O)c23)cc1)Nc1ccc(C(=O)Nc2cc(S(=O)(=O)O)cc3cccc(S(=O)(=O)O)c23)cc1`, the T/C was 95 % of control (dose: 50.0 mg/kg/injection, schedule: Q01DX009 (ip), vehicle: Klucel (hydroxypropylcellulose) (HPC)); 100 % of control (dose: 50.0 mg/kg/injection, schedule: Q04DX003 (ip), vehicle: Klucel (hydroxypropylcellulose) (HPC)); 110 % of control (dose: 100.0 mg/kg/injection, schedule: Q01DX009 (ip), vehicle: Klucel (hydroxypropylcellulose) (HPC)); 104 % of control (dose: 100.0 mg/kg/injection, schedule: Q04DX003 (ip), vehicle: Klucel (hydroxypropylcellulose) (HPC)); 86 % of control (dose: 200.0 mg/kg/injection, schedule: Q04DX003 (ip), vehicle: Klucel (hydroxypropylcellulose) (HPC)).

The record behind these values is PubChem BioAssay AID328 (DTP/NCI, 2004).
